Measurements: patent USRE48711E1, “Apoptosis signal-regulating kinase inhibitors” (Gilead Sciences, Inc., priority 2009, dated 2021)

What follows are compounds tested against ASK1 (Apoptosis Signal-Regulating Kinase 1) (Homo sapiens (Human), UniProt Q99683) (assay: ASK1 (Apoptosis Signal-Regulating Kinase 1) TR-FRET Kinase Assay (Biochemical IC50)). Details: not given.
ASK1 (Apoptosis Signal-Regulating Kinase 1), sequence (Q99683 649-946): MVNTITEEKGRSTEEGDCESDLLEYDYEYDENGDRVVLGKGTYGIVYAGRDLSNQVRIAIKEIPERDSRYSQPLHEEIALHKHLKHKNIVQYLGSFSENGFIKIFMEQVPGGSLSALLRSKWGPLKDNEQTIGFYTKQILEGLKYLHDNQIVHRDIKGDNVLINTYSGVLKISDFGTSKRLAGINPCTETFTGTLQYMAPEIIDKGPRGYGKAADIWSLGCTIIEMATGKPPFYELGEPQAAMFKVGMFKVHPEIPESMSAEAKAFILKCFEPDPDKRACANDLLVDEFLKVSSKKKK
`C[C@@H](O)Cn1cnnc1-c1cccc(NC(=O)c2cc(-c3cccnc3)ccn2)c1` [Example 34, (R)-N-(3-(4-(2-hydroxypropyl)-4H-1,2,4-triazol-3-yl)phenyl)-3,4′-bipyridine-2′-carboxamide] was tested, and the IC50 was 195 nM.

Same assay, conditions: TR-FRET, biotin-MBP substrate, 20 min pre-incubation, ATP added as 300 μM solution
`COc1ncc(-c2ccnc(C(=O)Nc3cccc(-c4nncn4C4CC4)c3)c2)cn1` [Example 45, N-(3-(4-cyclopropyl-4H-1,2,4-triazol-3-yl)phenyl)-4-(2-methoxypyrimidin-5-yl)picolinamide] showed an IC50 of 9 nM.
Work on `O=C(Nc1cccc(-c2nncn2C2CC2)c1)c1cc(-c2cncc3ccccc23)ccn1` [Example 89, N-(3-(4-cyclopropyl-4H-1,2,4-triazol-3-yl)phenyl)-4-(isoquinolin-4-yl)picolinamide] yielded an IC50 of 26 nM.
`O=C(Nc1cccc(-c2nncn2C2CC2)n1)c1cc(-n2cnc(-c3ccccc3)c2)ccn1` [Example 113, N-(6-(4-cyclopropyl-4H-1,2,4-triazol-3-yl)pyridin-2-yl)-4-(4-phenyl-1H-imidazol-1-yl)picolinamide] gave an IC50 of 10 nM.
`CSc1ccc(-c2ccnc(C(=O)Nc3cccc(-c4nncn4C4CC4)c3)c2)cn1` [Example 131, N-(3-(4-cyclopropyl-4H-1,2,4-triazol-3-yl)phenyl)-6-(methylthio)-3,4′-bipyridine-2′-carboxamide] was tested, and the IC50 was 11 nM.
`Cc1ncn(-c2ccnc(C(=O)Nc3cccc(-c4nncn4C4CC4)n3)c2)c1C` [Example 160, N-(6-(4-cyclopropyl-4H-1,2,4-triazol-3-yl)pyridin-2-yl)-4-(4,5-dimethyl-1H-imidazol-1-yl)picolinamide] gave an IC50 of 4 nM.
`O=C(Nc1cccc(-c2nncn2C2CC2)c1)c1cc(-c2cnc(C3CC3)c(Cl)c2)ccn1` [Example 135, 5-chloro-6-cyclopropyl-N-(3-(4-cyclopropyl-4H-1,2,4-triazol-3-yl)phenyl)-3,4′-bipyridine-2′-carboxamide] showed an IC50 of 131 nM.
For `O=C(Nc1cccc(-c2nncn2C2CC2)c1)c1cc(-n2cnc3cnccc32)ccn1` [Example 83, N-(3-(4-cyclopropyl-4H-1,2,4-triazol-3-yl)phenyl)-4-(1H-imidazo[4,5-c]pyridin-1-yl)picolinamide], the IC50 was 53 nM.
`CN1CCN(c2ccnc(C(=O)Nc3cccc(-c4nncn4C)c3)c2)CC1` [Example 29, N-(3-(4-methyl-4H-1,2,4-triazol-3-yl)phenyl)-4-(4-methylpiperazin-1-yl)picolinamide] gave an IC50 of 443 nM.
Work on `COc1ncc(-c2ccnc(C(=O)Nc3cccc(-c4nncn4C4CC4)c3)c2)c(OC)n1` [Example 49, N-(3-(4-cyclopropyl-4H-1,2,4-triazol-3-yl)phenyl)-4-(2,4-dimethoxypyrimidin-5-yl)picolinamide] yielded an IC50 of 8 nM.
`O=C(Nc1cccc(-c2nncn2C2CC2)c1)c1cc(-n2nnc3ccccc32)ccn1` [Example 85, 4-(1H-benzo[d][1,2,3]triazol-1-yl)-N-(3-(4-cyclopropyl-4H-1,2,4-triazol-3-yl)phenyl)picolinamide] gave an IC50 of 141 nM.
`CNS(=O)(=O)c1ccc(-c2ccnc(C(=O)Nc3cccc(-c4nncn4C4CC4)n3)c2)cc1` [Example 111, N-(6-(4-cyclopropyl-4H-1,2,4-triazol-3-yl)pyridin-2-yl)-4-(4-(N-methylsulfamoyl)phenyl)picolinamide] showed an IC50 of 9 nM.
In the case of `O=C(Nc1cccc(-c2nncn2C2CC2)n1)c1cccc(-c2cccnc2)c1` [Example 130, N-(6-(4-cyclopropyl-4H-1,2,4-triazol-3-yl)pyridin-2-yl)-3-(pyridin-3-yl)benzamide], the IC50 is reported as 12 nM.
In the case of `O=C(Nc1cccc(-c2nncn2CC2(O)CC2)c1)c1cc(-c2cccnc2)ccn1` [Example 61, N-(3-(4-((1-hydroxycyclopropyl)methyl)-4H-1,2,4-triazol-3-yl)phenyl)-3,4′-bipyridine-2′-carboxamide], the IC50 is reported as 174 nM.
With `O=C(Nc1cccc(-c2nncn2C2CC2)c1)c1cc(-n2cncn2)ccn1` [Example 28, N-(3-(4-cyclopropyl-4H-1,2,4-triazol-3-yl)phenyl)-4-(1H-1,2,4-triazol-1-yl)picolinamide] the IC50 was 110 nM.
For `O=C(Nc1cccc(-c2nncn2C2CC2)c1)c1cc(-c2cnc3ccoc3c2)ccn1` [Example 142, N-(3-(4-cyclopropyl-4H-1,2,4-triazol-3-yl)phenyl)-4-(furo[3,2-b]pyridin-6-yl)picolinamide], the IC50 was 11 nM.
`CCc1cc(-c2ccnc(C(=O)Nc3cccc(-c4nncn4C4CC4)c3)c2)cnc1CC` [Example 141, N-(3-(4-cyclopropyl-4H-1,2,4-triazol-3-yl)phenyl)-5,6-diethyl-3,4′-bipyridine-2′-carboxamide] gave an IC50 of 13 nM.
Compound `CS(=O)(=O)c1ccc(-c2ccnc(C(=O)Nc3cccc(-c4nncn4C4CC4)n3)c2)cc1` [Example 101, N-(6-(4-cyclopropyl-4H-1,2,4-triazol-3-yl)pyridin-2-yl)-4-(4-(methylsulfonyl)phenyl)picolinamide] has an IC50 of 7 nM.
In the case of `O=C(Nc1cccc(-c2nncn2C2CC2)c1)c1cc(-c2ccc(F)nc2)ccn1` [Example 93, N-(3-(4-cyclopropyl-4H-1,2,4-triazol-3-yl)phenyl)-6-fluoro-3,4′-bipyridine-2′-carboxamide], the IC50 is reported as 43 nM.
In the case of `O=C(Nc1cccc(-c2nncn2C2CC2)n1)c1cccc(-c2cnc3cccnc3c2)c1` [Example 191, N-(6-(4-cyclopropyl-4H-1,2,4-triazol-3-yl)pyridin-2-yl)-3-(1,5-naphthyridin-3-yl)benzamide], the IC50 is reported as 18 nM.
`O=C(Nc1cc(F)cc(-c2nncn2C2CC2)c1)c1cc(-c2cccnc2)ccn1` [Example 169, N-(3-(4-cyclopropyl-4H-1,2,4-triazol-3-yl)-5-fluorophenyl)-3,4′-bipyridine-2′-carboxamide] showed an IC50 of 157 nM.
Compound `Cc1cc(-c2ccnc(C(=O)Nc3cccc(-c4nncn4C4CC4)c3)c2)cnc1F` [Example 48, N-(3-(4-cyclopropyl-4H-1,2,4-triazol-3-yl)phenyl)-6-fluoro-5-methyl-3,4′-bipyridine-2′-carboxamide] has an IC50 of 37 nM.
In the case of `CC(C)n1cnnc1-c1cccc(NC(=O)c2cc(-c3ccc(C4CC4)nc3)ccn2)c1` [Example 219, 6-cyclopropyl-N-(3-(4-isopropyl-4H-1,2,4-triazol-3-yl)phenyl)-3,4′-bipyridine-2′-carboxamide], the IC50 is reported as 16 nM.
Work on `C[C@@H](CO)n1cnnc1-c1cccc(NC(=O)c2cc(-c3cccnc3)ccn2)c1` [Example 20, (S)-N-(3-(4-(1-hydroxypropan-2-yl)-4H-1,2,4-triazol-3-yl)phenyl)-3,4′-bipyridine-2′-carboxamide] yielded an IC50 of 39 nM.
Compound `COC(c1cn(-c2cccc(C(=O)Nc3cccc(-c4nncn4C4CC4)n3)c2)cn1)C(F)(F)F` (stereo not shown) [Example 235, N-(6-(4-cyclopropyl-4H-1,2,4-triazol-3-yl)pyridin-2-yl)-3-(4-(2,2,2-trifluoro-1-methoxyethyl)-1H-imidazol-1-yl)benzamide] has an IC50 of 15 nM.
Compound `O=C(Nc1cccc(-c2nncn2C2CC2)n1)c1cncc(-c2ccc(C3CC3)nc2)c1` [Example 259, 6′-cyclopropyl-N-(6-(4-cyclopropyl-4H-1,2,4-triazol-3-yl)pyridin-2-yl)-3,3′-bipyridine-5-carboxamide] has an IC50 of 8 nM.
With `O=C(Nc1cccc(-c2cncn2C2CC2)c1)c1cc(-c2cnc3ccccc3c2)ccn1` [Example 108, N-(3-(1-cyclopropyl-1H-imidazol-5-yl)phenyl)-4-(quinolin-3-yl)picolinamide] the IC50 was 41 nM.
`NC(=O)c1ccc(-c2ccnc(C(=O)Nc3cccc(-c4nncn4C4CC4)c3)c2)cn1` [Example 51, N2′-(3-(4-cyclopropyl-4H-1,2,4-triazol-3-yl)phenyl)-3,4′-bipyridine-2′,6-dicarboxamide] showed an IC50 of 8 nM.
`O=C(Nc1cccc(-c2nncn2C2CC2)n1)c1cccc(-c2ccc(C3CC3)nc2)c1` [Example 151, N-(6-(4-cyclopropyl-4H-1,2,4-triazol-3-yl)pyridin-2-yl)-3-(6-cyclopropylpyridin-3-yl)benzamide] showed an IC50 of 8 nM.
`CCc1cncc(-c2ccnc(C(=O)Nc3cccc(-c4nncn4C4CC4)c3)c2)c1` [Example 146, N-(3-(4-cyclopropyl-4H-1,2,4-triazol-3-yl)phenyl)-5-ethyl-3,4′-bipyridine-2′-carboxamide] was tested, and the IC50 was 8 nM.
`C[C@H](O)Cn1cnnc1-c1cccc(NC(=O)c2cc(-c3cccnc3)ccn2)c1` [Example 35, (S)-N-(3-(4-(2-hydroxypropyl)-4H-1,2,4-triazol-3-yl)phenyl)-3,4′-bipyridine-2′-carboxamide] showed an IC50 of 87 nM.
For `O=C(Nc1cccc(-c2nncn2C2CC2)c1)c1cc(-n2cnc(-c3ccccc3)c2)ccn1` [Example 38, N-(3-(4-cyclopropyl-4H-1,2,4-triazol-3-yl)phenyl)-4-(4-phenyl-1H-imidazol-1-yl)picolinamide], the IC50 was 17 nM.
`O=C(Nc1cccc(-c2nncn2C2CC2)c1)c1cc(-n2cnc3c2CCCC3)ccn1` [Example 86, N-(3-(4-cyclopropyl-4H-1,2,4-triazol-3-yl)phenyl)-4-(4,5,6,7-tetrahydro-1H-benzo[d]imidazol-1-yl)picolinamide] showed an IC50 of 9 nM.
Compound `O=C(Nc1cccc(-c2nncn2C2CC2)n1)c1cc(-c2ccc(C3CC3)nc2)c2ccccc2n1` [Example 225, N-(6-(4-cyclopropyl-4H-1,2,4-triazol-3-yl)pyridin-2-yl)-4-(6-cyclopropylpyridin-3-yl)quinoline-2-carboxamide] has an IC50 of 103 nM.
Compound `COc1ncccc1-c1ccnc(C(=O)Nc2cccc(-c3nncn3C3CC3)c2)c1` [Example 67, N-(3-(4-cyclopropyl-4H-1,2,4-triazol-3-yl)phenyl)-2-methoxy-3,4′-bipyridine-2′-carboxamide] has an IC50 of 60 nM.
Compound `CC(C)c1cn(-c2ccnc(C(=O)Nc3cccc(-c4nncn4C4CC4)c3)c2)cn1` [Example 163, N-(3-(4-cyclopropyl-4H-1,2,4-triazol-3-yl)phenyl)-4-(4-isopropyl-1H-imidazol-1-yl)picolinamide] has an IC50 of 4 nM.
`O=C(Nc1cccc(-c2nncn2C2CC2c2ccccc2)c1)c1cc(-c2ccc(C3CC3)nc2)ccn1` (stereo not shown) [Example 267, 6-cyclopropyl-N-(3-(4-(2-phenylcyclopropyl)-4H-1,2,4-triazol-3-yl)phenyl)-3,4′-bipyridine-2′-carboxamide] showed an IC50 of 425 nM.
